Laboratory results taken from the supplement of paper PMC10307832.

How the values were obtained:
Assay in all cases: relative viability (nuclei count vs DMSO), 5 days (fraction); higher = more cells survive
[1] = test system: NCI-H1299
Procedure, shortened: (§1)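 Lung cancer cell lines in 1536-well plates got either a single drug or a fixed anchor-drug dose together with five library-drug doses (not always all listed) in √10 steps, by pin tool, on the day after seeding. Nuclei were counted after 5 days, and relative viability is the treated-to-vehicle ratio of nuclei counts. Values are medians of duplicate plates.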

[2] = test system: NCI-H2009
Procedure, shortened: as §1

[3] = test system: NCI-H1703
Procedure, shortened: as §1

[4] = test system: EBC-1
Procedure, shortened: as §1

[5] = test system: Calu-6
Procedure, shortened: as §1

[6] = test system: NCI-H661
Procedure, shortened: as §1

[7] = test system: NCI-H460
Procedure, shortened: as §1

[8] = test system: IA-LM
Procedure, shortened: as §1

[9] = test system: A549
Procedure, shortened: as §1

With Oc1nc(-c2ccc(C(F)(F)F)cc2)nc2c1CSCC2 [XAV939] + CC(C)C[C@H](NC(=O)[C@H](Cc1ccccc1)NC(=O)c1cnccn1)B(O)O [Bortezomib] (partner 0.002 µM) the relative viability ([1]; first compound 0.08 µM) was 1.06, the relative viability ([1]; first compound 0.253 µM) was 0.996 and the relative viability ([1]; first compound 0.8 µM) was 1.07. For the same molecule, the relative viability ([1]; first compound 2.53 µM) was 1.05, the relative viability ([2]; first compound 0.08 µM) was 1.17 and the relative viability ([2]; first compound 0.253 µM) was 0.901. For the same molecule, the relative viability ([2]; first compound 0.8 µM) was 0.936, the relative viability ([2]; first compound 2.53 µM) was 0.915 and the relative viability ([3]; first compound 0.08 µM) was 0.451. The relative viability ([3]; first compound 0.253 µM) was 0.417, the relative viability ([3]; first compound 0.8 µM) was 0.293 and the relative viability ([3]; first compound 2.53 µM) was 0.285. For the same molecule, the relative viability ([4]; first compound 0.08 µM) was 0.589, the relative viability ([4]; first compound 0.253 µM) was 0.478 and the relative viability ([4]; first compound 0.8 µM) was 0.584. For the same molecule, the relative viability ([4]; first compound 2.53 µM) was 0.476, the relative viability ([5]; first compound 0.08 µM) was 0.936 and the relative viability ([5]; first compound 0.253 µM) was 0.978. For the same molecule, the relative viability ([5]; first compound 0.8 µM) was 1.05, the relative viability ([5]; first compound 2.53 µM) was 0.978 and the relative viability ([6]; first compound 0.08 µM) was 0.866. It also gave a relative viability ([6]; first compound 0.253 µM) of 0.707, a relative viability ([6]; first compound 0.8 µM) of 0.95 and a relative viability ([6]; first compound 2.53 µM) of 0.495. It also gave a relative viability ([7]; first compound 0.08 µM) of 1.45, a relative viability ([7]; first compound 0.253 µM) of 1.07 and a relative viability ([7]; first compound 0.8 µM) of 1.05. For the same molecule, the relative viability ([7]; first compound 2.53 µM) was 1.08, the relative viability ([8]; first compound 0.08 µM) was 0.736 and the relative viability ([8]; first compound 0.253 µM) was 0.617. The relative viability ([8]; first compound 0.8 µM) was 0.607 and the relative viability ([8]; first compound 2.53 µM) was 0.487.

With NC(=O)Nc1cc(-c2cccc(F)c2)sc1C(=O)N[C@H]1CCCNC1 [AZD7762] + CC1(C)CCC(c2ccc(Cl)cc2)=C(CN2CCN(c3ccc(C(=O)NS(=O)(=O)c4ccc(N[C@H](CCN5CCOCC5)CSc5ccccc5)c(S(=O)(=O)C(F)(F)F)c4)cc3)CC2)C1 [Navitoclax] (partner 0.5 µM) the relative viability ([1]; first compound 0.01 µM) was 1.06, the relative viability ([1]; first compound 0.03162 µM) was 1.06 and the relative viability ([1]; first compound 0.1 µM) was 1.09. For the same molecule, the relative viability ([1]; first compound 0.3162 µM) was 1.08, the relative viability ([1]; first compound 1 µM) was 0.976 and the relative viability ([2]; first compound 0.01 µM) was 1.27. For the same molecule, the relative viability ([2]; first compound 0.03162 µM) was 1.19, the relative viability ([2]; first compound 0.1 µM) was 1.25 and the relative viability ([2]; first compound 0.3162 µM) was 1.13. The relative viability ([2]; first compound 1 µM) was 1.08, the relative viability ([3]; first compound 0.01 µM) was 0.673 and the relative viability ([3]; first compound 0.03162 µM) was 0.286. The relative viability ([3]; first compound 0.1 µM) was 0.253, the relative viability ([3]; first compound 0.3162 µM) was 0.178 and the relative viability ([3]; first compound 1 µM) was 0.114. It also gave a relative viability ([4]; first compound 0.01 µM) of 0.524, a relative viability ([4]; first compound 0.03162 µM) of 0.427 and a relative viability ([4]; first compound 0.1 µM) of 0.292. For the same molecule, the relative viability ([4]; first compound 0.3162 µM) was 0.299, the relative viability ([4]; first compound 1 µM) was 0.182 and the relative viability ([5]; first compound 0.01 µM) was 0.813. It also gave a relative viability ([5]; first compound 0.03162 µM) of 0.812, a relative viability ([5]; first compound 0.1 µM) of 0.531 and a relative viability ([5]; first compound 0.3162 µM) of 0.129. The relative viability ([5]; first compound 1 µM) was 0.091, the relative viability ([9]; first compound 0.01 µM) was 1.18 and the relative viability ([9]; first compound 0.03162 µM) was 1.29. The relative viability ([9]; first compound 0.1 µM) was 1.2, the relative viability ([9]; first compound 0.3162 µM) was 0.898 and the relative viability ([9]; first compound 1 µM) was 0.269. For the same molecule, the relative viability ([7]; first compound 0.01 µM) was 1.25, the relative viability ([7]; first compound 0.03162 µM) was 1.15 and the relative viability ([7]; first compound 0.1 µM) was 1.11. The relative viability ([7]; first compound 0.3162 µM) was 0.861, the relative viability ([7]; first compound 1 µM) was 0.0845 and the relative viability ([8]; first compound 0.01 µM) was 0.992. The relative viability ([8]; first compound 0.03162 µM) was 0.858, the relative viability ([8]; first compound 0.1 µM) was 0.915 and the relative viability ([8]; first compound 0.3162 µM) was 0.985. The relative viability ([8]; first compound 1 µM) was 0.187.

With CC1(C)CCC(c2ccc(Cl)cc2)=C(CN2CCN(c3ccc(C(=O)NS(=O)(=O)c4ccc(N[C@H](CCN5CCOCC5)CSc5ccccc5)c(S(=O)(=O)C(F)(F)F)c4)cc3)CC2)C1 [Navitoclax] + CC(C)C[C@H](NC(=O)[C@H](Cc1ccccc1)NC(=O)c1cnccn1)B(O)O [Bortezomib] (partner 0.002 µM) the relative viability ([1]; first compound 0.005 µM) was 1.04, the relative viability ([1]; first compound 0.01581 µM) was 1.12 and the relative viability ([1]; first compound 0.05 µM) was 1.01. It also gave a relative viability ([1]; first compound 0.1581 µM) of 1.05, a relative viability ([1]; first compound 0.5 µM) of 1.02 and a relative viability ([2]; first compound 0.005 µM) of 0.958. The relative viability ([2]; first compound 0.01581 µM) was 1.19, the relative viability ([2]; first compound 0.05 µM) was 0.953 and the relative viability ([2]; first compound 0.1581 µM) was 0.979. The relative viability ([2]; first compound 0.5 µM) was 1.02, the relative viability ([3]; first compound 0.005 µM) was 0.214 and the relative viability ([3]; first compound 0.01581 µM) was 0.275. The relative viability ([3]; first compound 0.05 µM) was 0.313, the relative viability ([3]; first compound 0.1581 µM) was 0.65 and the relative viability ([3]; first compound 0.5 µM) was 0.224. It also gave a relative viability ([4]; first compound 0.005 µM) of 0.614, a relative viability ([4]; first compound 0.01581 µM) of 0.649 and a relative viability ([4]; first compound 0.05 µM) of 0.575. The relative viability ([4]; first compound 0.1581 µM) was 0.616, the relative viability ([4]; first compound 0.5 µM) was 0.383 and the relative viability ([5]; first compound 0.005 µM) was 0.999. It also gave a relative viability ([5]; first compound 0.01581 µM) of 1.16, a relative viability ([5]; first compound 0.05 µM) of 1.13 and a relative viability ([5]; first compound 0.1581 µM) of 0.972. It also gave a relative viability ([5]; first compound 0.5 µM) of 0.877, a relative viability ([6]; first compound 0.005 µM) of 0.844 and a relative viability ([6]; first compound 0.01581 µM) of 0.873. The relative viability ([6]; first compound 0.05 µM) was 0.785, the relative viability ([6]; first compound 0.1581 µM) was 0.827 and the relative viability ([6]; first compound 0.5 µM) was 0.668. The relative viability ([7]; first compound 0.005 µM) was 1.1, the relative viability ([7]; first compound 0.01581 µM) was 1.16 and the relative viability ([7]; first compound 0.05 µM) was 1.4. It also gave a relative viability ([7]; first compound 0.1581 µM) of 1.01, a relative viability ([7]; first compound 0.5 µM) of 0.983 and a relative viability ([8]; first compound 0.005 µM) of 0.926. For the same molecule, the relative viability ([8]; first compound 0.01581 µM) was 0.818, the relative viability ([8]; first compound 0.05 µM) was 0.824 and the relative viability ([8]; first compound 0.1581 µM) was 0.896. For the same molecule, the relative viability ([8]; first compound 0.5 µM) was 0.747.
